Data taken from PubChem BioAssay AID179 (DTP/NCI, 2004).
The source made the active and inactive calls.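 Rule for the calls: active = compounds giving half or more protection of infected cells from virus-caused growth loss, again on retest; inactive = the rest.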 Where a SMILES comes first, the peptide text is derived from it.

Tested on: CEM cells HIV-1 protection, formazan growth assay
Assay: NCI AIDS Antiviral Assay
Conditions: for IC50: measured here: growth of uninfected CEM cells
How it was run: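 Human CEM cells, uninfected and HIV-1-infected, exposed to five drug concentrations; growth measured by soluble formazan assay and scored as percent protection from infection, with protecting compounds retested.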

SMILES | EC50 [µM] | IC50 [µM] | outcome
S=c1[nH]nc(Cn2c3ccc(Br)cc3c3nc4ccccc4nc32)o1 | > 200 | 49 | –
Fc1ccc2nncc(SCc3ccc(Cl)c(Cl)c3)c2c1 | > 79.4 | > 79.4 | –
[N-]=[N+]=NC1C2CC3CC(C2)CC1C3 (stereo not drawn) | > 77.6 | > 77.6 | –
COC(=O)/N=[N+](\[O-])C(c1ccc(Cl)cc1)c1ccc(Cl)cc1 | > 200 | 64.6 | –
Cc1ccc2nc(-c3ccc(-c4nc5ccc(C)cc5o4)c(O)c3)oc2c1 | > 200 | > 200 | –
CC(C)NC(=O)CCN(C(=O)O)S(=O)(=O)c1ccc(NC(=O)c2ccccc2)cc1 | > 575 | > 575 | –
Cc1ccc(-n2cc(/C(N)=N/O)c3ccccc3c2=O)cc1 | > 89.1 | > 89.1 | –
Cc1cc(NS(=O)(=O)c2ccc(NO)cc2)no1 | > 70.8 | 15.8 | –
CCOC1(NC(=O)N(C)C)C2CCCC21 (stereo not drawn) | > 200 | > 200 | –
O=C(O)C1Cc2c([nH]c3ccccc23)C(C2CCNC2=S)N1 (stereo not drawn) | – | – | inactive
O=C1CSC(=O)N1c1ccccc1 | > 186 | > 186 | –
O=C(CCc1nnc2s/c(=C\c3ccc(Cl)cc3Cl)c(=O)n12)Nc1cc(Cl)c(Cl)cc1Cl | > 13.2 | > 13.2 | –
CC(C)(C)Cc1cssc1=S | > 200 | > 200 | –
Cn1[nH]cc2ccc3nc4ccccc4c(=O)c3c21 | – | – | inactive
O=S(=O)(O)c1cc(N=Nc2c(O)ccc3ccccc23)ccc1/C=C/c1ccc(N=Nc2c(O)ccc3ccccc23)cc1S(=O)(=O)O | > 50.1 | > 50.1 | –
CN(C)CC1CCCCC(CN(C)C)C1=O (stereo not drawn) | – | – | inactive
CCN1C(NN)=NS(=O)(=O)c2ccccc21 | > 200 | > 200 | –
O=[P+](O)c1ccccn1 | – | – | inactive
CCCCCCCCCCCc1c2oc3ccc(C)cc3[nH]c-2cc(=O)c1=O | > 4.68 | > 4.68 | –
O=C1OCCC1(Cc1ccc(Cl)cc1)Cc1ccc(Cl)cc1 | > 29.5 | > 29.5 | –
Nc1nn2cnnc2s1 | – | – | inactive
NC(=O)c1ccc(NC=O)cc1 | > 1510 | 977 | –

SMILES | EC50 [µM] | IC50 [µM] | outcome
N#Cc1nn(-c2ccc(Cl)cc2)c(N)c2c(=N)n3nc(-c4ccccc4)cc3nc12 | > 9.12 | > 9.12 | –
O=c1c(SSc2coc3cc(F)ccc3c2=O)coc2cc(F)ccc12 | > 200 | 2.75 | –
C[N+](C)(C)CC1CCc2ccccc2C1=O (stereo not drawn) | > 724 | 1.32 | –
CCCC(NCCNC(CCC)C(=O)O)C(=O)O (stereo not drawn) | > 589 | > 589 | –
BrC1(Br)C2/C=C\CCCCC21 (stereo not drawn) | – | – | inactive
CC(C)CC(NC(=O)C(Cc1ccc(O)cc1)NC(=O)C(CO)NC(=O)C(CCC(=O)O)NC(=O)C1CCCN1C(=O)C(CC(C)C)NC(=O)C(C)NC(=O)CNC(=O)C(N)CCC(=O)O)C(=O)NC(Cc1c[nH]c2ccccc12)C(=O)O (stereo not drawn) (H-EGALPESYLW-OH; configuration not given here) | – | – | inactive
CC(C)(C)OC(=O)C1/C(=C/CO)CN1C(=O)OC(C)(C)C (stereo not drawn) | > 200 | 43.7 | –
CC(=O)NC1(C)CCC(C(C)(C)NC(C)=O)CC1 (stereo not drawn) | > 200 | > 200 | –
CN(C)CCCNC(=O)c1cc(NC(=O)c2cc(NC(=O)c3cc(NC(=O)c4ccc(C(=O)Nc5cc(C(=O)Nc6cc(C(=O)Nc7cc(C(=O)NCCCN(C)C)n(C)c7)n(C)c6)n(C)c5)nc4)cn3C)cn2C)cn1C | 5.37 | > 100 | –
CCCCCC=C(c1cc(C)c(OC)c(C(=O)OC)c1)c1cc(C)c(OC)c(C(=O)OC)c1 | > 51.3 | 25.7 | –
COc1cc2c(cc1OCCN1C(=O)c3cccc4cccc(c34)C1=O)N=C[C@@H]1CCCN1C2=O | > 41.7 | 5.5 | –
O=c1c2ccccc2c2nc3ccccc3nc2n1C1CCCCC1 | – | – | inactive
N=C1C(=N)c2ccccc2-c2ccccc21 | > 200 | 0.407 | –
Cc1cc2ncn(C3CCCCO3)c2cc1C (stereo not drawn) | > 200 | > 200 | –
Nc1nc(Cl)c(C=O)c(NCC2(CO)CCC2)n1 | > 200 | 2.88 | –
COC(=O)c1cc(C(c2cc(C(=O)OC)c(O)c(Br)c2C)C(Cl)(Cl)Cl)c(C)c(Br)c1O | > 200 | 112 | –
O=C(NNC(=S)NCc1ccccc1)c1csc(NC(=S)NC2CCCCC2)n1 | > 200 | 57.5 | –
Cc1ccc(S(=O)(=O)N/N=C2\CC(C)OC3=C2CCCCCC3)cc1 (stereo not drawn) | > 200 | 33.9 | –
COC(=O)N1C=NC2C3(C)C(C)=C(C)C3(C)C21C (stereo not drawn) | > 263 | 151 | –
Nc1[nH]c(=O)nc2snnc12 | > 200 | 4.79 | –
COc1cc(C[C@@H](C)N)cc(OC)c1 | > 200 | > 200 | –
COC(=O)[C@@]12CC(C(C)C)[C@H]3CC(C(=O)C=C1OC)[C@H]32 (stereo partly drawn) | – | – | inactive

SMILES | EC50 [µM] | IC50 [µM] | outcome
CSc1ncc2c(n1)sc1c(=O)n(-c3ccccc3)cnc12 | > 200 | > 200 | –
COc1ccc2nc(CC(=N)c3ccc(N(C)C)cc3)ccc2c1 | > 200 | 23.4 | –
CCN(CC)CCNC(=O)c1nn(-c2ccc(Cl)cc2)c2c1CCc1cc(OC)ccc1-2 | > 91.2 | 5.01 | –
CC1(O)C(=O)N(Cc2ccccc2)c2ccccc21 (stereo not drawn) | > 141 | > 141 | –
CCCCCCCCS(=O)(=O)c1ccc(O)c(C(=O)Nc2ccc(C(F)(F)F)cc2)c1 | > 40.7 | 1.58 | –
CCCc1cc(=O)oc2c3c(c4c(c12)OC(C)(C)C=C4)O[C@@H](C)[C@H](C)[C@H]3O | > 51.3 | 17 | –
Cc1ccc(S(=O)(=O)C2=Cc3ccccc3C2(O)c2ccccc2)cc1 (stereo not drawn) | > 200 | 21.4 | –
CC(C)(C)c1ccn[nH]1.CC(C)(C)c1ccn[nH]1.[Cl-].[Cl-].[O]=[V][O-] | > 200 | 35.5 | –
OC(c1ccc(F)cc1)C(F)(F)c1nc2ccccc2o1 (stereo not drawn) | > 200 | > 200 | –
c1ccc(Cc2nnc3n2CCC(c2ccccc2)S3)cc1 (stereo not drawn) | > 200 | > 200 | –
CS(=O)(=O)OCCCCOS(C)(=O)=O | > 204 | > 204 | –
COC(=O)C(CC(=O)c1c[nH]c2ccccc12)c1c[nH]c2ccccc12 (stereo not drawn) | – | – | inactive
CC1OC(c2ccccc2)=CC(OCc2ccccc2)[C@H]1OCc1ccccc1 (stereo partly drawn) | > 200 | 91.2 | –
CCOC(=O)Nc1ccc2c(c1)/C(=N\NC(N)=S)c1ccccc1-2 | > 200 | 3.39 | –
CC[C@H](OCc1ccccc1)/C(C)=C/CC(C)/C=C(/C[C@]1(C)OC(=O)N2CCC[C@H]21)[Si](C)(C)C (stereo partly drawn) | > 10.7 | > 10.7 | –
CCCCOC(=O)/C(CC(=O)C=C(C)C)=N\NS(=O)(=O)c1ccc(C)cc1 | > 174 | > 174 | –
CC1=NOC/C1=N\Nc1ccc(C(C)=NC2C3CC4CC(C3)CC2C4)cc1 (stereo not drawn) | > 27.5 | > 27.5 | –
CC(C)=CC(=O)OC1C2C(C)=CC(=O)C(O)C2(C)C2C3(O)OCC24C(CC(=O)OC14)C(C)C3O (stereo not drawn) | > 0.2 | 0.0112 | –
CC(C)(C)n1c(=O)[nH]c(=O)n1C(C)(C)C | > 200 | > 200 | –
O=C1CC(c2ccco2)C2(C(=O)NC(=O)NC2=O)C(c2ccco2)C1 (stereo not drawn) | > 200 | > 200 | –
